How the values were obtained:
[1] = Performance test: solvency of G1652 resin; assay type: physicochemical; settings: scale 1 = completely insoluble, 10 = completely soluble, >=6 soluble; 0.5 mL, ~20 mg resin, 22° C., 1 hour
Description: (§1) Several compounds were combined in different initial blends (Table 1). Standardized performance tests on solvency of a variety of resins, including (but not limited to) Kraton resins G1652, KR1164, KR1171, and G1726, Sukorez resin SU100S, and paraffin wax.
(§2) The performance tests on resins were performed as follows: The addition of 0.5 mL of each formulation to an individual screw-cap vial containing a stirbar and resin (G1652: ˜20 mg, SU100S: ˜40 mg, G1726: ˜25 mg, KR1164: ˜20 mg, KR1171, ˜20 mg, paraffin wax: ˜55 mg). The vials were tightly capped and solutions were stirred on a stirplate (400 rpm) at 22° C. for 1 hour. The stirbar was removed and solvency was observed, photos of the results were taken (Formulations 1-27, G1652 and SU100S). The odor of the blends was also tested empirically. Evaporation rates were calculated based on weight averages (% by volume) of individual components.

[2] = Performance test: solvency of SU100S resin; assay type: physicochemical; settings: scale 1 = completely insoluble, 10 = completely soluble, >=6 soluble; 0.5 mL, ~40 mg resin, 22° C., 1 hour
Description: as §1, §2

[3] = cited from earlier work

Structure (SMILES)	G1652 solvency [1]	SU100S solvency [2]	stability ([3]; in the presence of strong aqueous bases or aqueous acids)	solubility in water ([3]; room temperature) [%]
FC(F)(F)c1ccc(Cl)cc1 [Formulation 26, para-chlorobenzotrifluoride]	10	10	–	–
COC(C)=O [Methyl acetate]	–	–	not stable	25
CCCCCC [Formulation 27, hexanes]	10	10	–	–
